Assay results reported in patent EP4431115A1, “COMPOUND PHARMACEUTICAL PREPARATION CONTAINING OIL COMPONENT COMPRISING POLYOXYETHYLENE STRUCTURE” (CHUGAI SEIYAKU KABUSHIKI KAISHA, priority 2022, dated 2023).
≈ marks a conversion by molar mass, not a printed value. Bridge positions count the residues as written; N and C are the ends. Square brackets hold non-standard residues; d marks the D form. Peptide text beside a SMILES is read from it. * marks the point of attachment. hPhe(3,5-F2-4-CF3) = N[C@@H](CCc1cc(F)c(C(F)(F)F)c(F)c1)C(=O)O; hPhe(3-Cl-4-CF3) = N[C@@H](CCc1ccc(C(F)(F)F)c(Cl)c1)C(=O)O; NMeGly(cPent) = CN[C@H](C(=O)O)C1CCCC1; NMeCha = CN[C@@H](CC1CCCCC1)C(=O)O; Hyp = O=C(O)[C@@H]1C[C@@H](O)CN1; NMeF = CN[C@@H](Cc1ccccc1)C(=O)O; NMeD = CN[C@@H](CC(=O)O)C(=O)O; NMeL = CN[C@@H](CC(C)C)C(=O)O; NMeA = CN[C@@H](C)C(=O)O; Piperidide = C1CCN(*)CC1; Ac5c = NC1(C(=O)O)CCCC1; Aze = O=C(O)[C@@H]1CCN1; Sar = CNCC(=O)O; tBu = CC(C)(C)*

Assay: Evaluation of solubility of cyclic peptide compound in phosphate buffer (Example 3-3)
Format: physicochemical
Conditions: 50 mM phosphate buffer solution pH 6.5, 37°C, 22 to 24 hours
Protocol: Evaluation of the solubility of the cyclic peptide compound was performed. To lyophilized powder of the compound, a 50 mM phosphate buffer solution (PPB: Phosphate buffer, pH 6.5) was added, and after shaking (at 37°C, 1800 rpm, for 22 to 24 hours), the mixed solution was filtered through a filter, and the compound concentration of the filtrate was measured by LC/MS/MS. Solubility was calculated from the measured compound concentration. The solubilities of the compounds 3, 4, 6, 7, and 8 were 11 µg/mL, 1 µg/mL, 1 µg/mL, 15 µg/mL, and 5 µg/mL, respectively.

Row | Compound | Solubility
1 | CCO[C@@H]1C[C@H]2C(=O)NC3(CCCC3)C(=O)N(C)[C@@H](C3CCCC3)C(=O)N(C)[C@H](C(=O)N(C)C)CC(=O)N(C)[C@@H](CC(C)C)C(=O)N[C@@H]([C@@H](C)CC)C(=O)N(C)[C@@H](C)C(=O)N3CC[C@H]3C(=O)N(C)[C@@H](CC3CCCCC3)C(=O)N(C)CC(=O)N[C@@H](CCc3cc(F)c(C(F)(F)F)c(F)c3)C(=O)N2C1 [Compound 8] ([NMeL]I[NMeA][Aze][NMeCha][Sar][hPhe(3,5-F2-4-CF3)][Hyp](Et)[Ac5c][NMeGly(cPent)][NMeD]-NMe2; lactam N-11) | 5 µg/mL (≈ 3.43 µM)
2 | CC[C@H](C)[C@@H]1NC(=O)[C@H](CC(C)C)N(C)C(=O)C[C@@H](C(=O)N2CCCCC2)N(C)C(=O)[C@H](C2CCCC2)N(C)C(=O)C2(CCCC2)NC(=O)[C@@H]2CCCN2C(=O)[C@H](CCc2ccc(C(F)(F)F)c(Cl)c2)NC(=O)CN(C)C(=O)[C@H](CC2CCCCC2)N(C)C(=O)[C@@H]2CCN2C(=O)[C@H](C)N(C)C1=O [Compound 6] ([NMeL]I[NMeA][Aze][NMeCha][Sar][hPhe(3-Cl-4-CF3)]P[Ac5c][NMeGly(cPent)][NMeD]-Piperidide; lactam N-11) | 1 µg/mL (≈ 0.688 µM)
3 | CC(C)C[C@@H]1NC(=O)[C@H](Cc2ccccc2)N(C)C(=O)[C@H](COC(C)(C)C)NC(=O)[C@H](Cc2ccccc2)N(C)C(=O)[C@H](C)N(C)C(=O)[C@H](CC(C)C)N(C)C(=O)[C@@H](C)NC(=O)C[C@@H](C(=O)N2CCCCC2)NC(=O)[C@H](Cc2ccccc2)N(C)C(=O)[C@H]([C@@H](C)O)NC(=O)[C@H](CC(C)C)N(C)C1=O [Compound 4] ([dA][NMeL][NMeA][NMeF]S(tBu)[NMeF]L[NMeL]T[NMeF]D-Piperidide; lactam N-11) | 1 µg/mL (≈ 0.697 µM)
